Details: intranasal 0.05% or 0.1% nasal spray; after first dose (Day 1) and last dose (Day 14); 43 subjects
Protocol: Each group started with approximately 190 subjects.
Plasma epinastine levels following intranasal administration were determined.

Compound: NC1=NCC2c3ccccc3Cc3ccccc3N12 (stereo not shown) [epinastine, 3-amino-9,13b-dihydro-1H-dibenz-[c,-f]imidazol[1,5-a]azepine]
- Plasma concentrations of epinastine: < 1 ng/mL

— patent US7378082B1, “Method for treating allergic rhinitis without adverse effects” (Inspire Pharmaceuticals, Inc., priority 2007, dated 2008)
